Calls of active or inactive are those of the source. No cut-off for these calls is given here. *1 amine or outer side, *2 acyl side, *3 side chain or, on linkers, in order; H or OH if unused. Where a SMILES comes first, the peptide text is derived from it. [ ]: non-standard residue; d: D form. X2 = COc1ccc2[nH]cc([C@H](CN[*:1])C(=O)[*:2])c2c1; X1 = Cn1cc([C@H](CN[*:1])C(=O)[*:2])c2ccccc21
What was measured:
[1] = target: Nociceptin receptor (Rattus norvegicus) (UniProt P35370); experiment: Activity at Wistar rat NOP receptor assessed as inhibition of low-frequency electrically-stimulated vas deferens contraction at 1 x 10^-6 M in presence of naloxone relative to control
Sequence of Nociceptin receptor (Rattus norvegicus) (P35370 whole entry): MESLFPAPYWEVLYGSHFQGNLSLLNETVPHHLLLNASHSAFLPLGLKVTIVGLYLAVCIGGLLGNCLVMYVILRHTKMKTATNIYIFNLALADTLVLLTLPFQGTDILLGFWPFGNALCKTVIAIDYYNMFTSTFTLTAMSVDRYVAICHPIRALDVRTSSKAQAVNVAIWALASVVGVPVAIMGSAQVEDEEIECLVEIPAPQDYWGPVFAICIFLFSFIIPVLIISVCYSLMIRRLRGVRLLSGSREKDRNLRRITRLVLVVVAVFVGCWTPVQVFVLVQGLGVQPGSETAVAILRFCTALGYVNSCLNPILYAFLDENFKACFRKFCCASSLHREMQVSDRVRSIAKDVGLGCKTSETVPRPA

[2] = target: Nociceptin receptor (Rattus norvegicus) (UniProt P35370); experiment: Activity at Wistar rat NOP receptor assessed as inhibition of low-frequency electrically-stimulated vas deferens contraction at 1 x 10^-6 M relative to control
[3] = target: Nociceptin receptor (Rattus norvegicus) (UniProt P35370); experiment: Activity at Wistar rat NOP receptor assessed as inhibition of low-frequency electrically-stimulated vas deferens contraction at 1 x 10^-6 M in presence of naloxone benzoylhydrazone
[4] = target: T1, Nociceptin receptor (Rattus norvegicus, UniProt P35370); experiment: Activity at Wistar rat NOP receptor assessed as inhibition of low-frequency electrically-stimulated vas deferens contraction in presence of naloxone
T1 sequence (P35370 whole entry): as above

[5] = target: T1, Nociceptin receptor; experiment: Activity at Wistar rat NOP receptor assessed as inhibition of low-frequency electrically-stimulated vas deferens contraction
[6] = target: T2, Nociceptin/mu opioid receptor (Rattus norvegicus, UniProt P33535+P35370); experiment: Activity at Wistar rat NOP/mu opioid receptor assessed as inhibition of low-frequency electrically-stimulated vas deferens contraction in presence of naloxone; type: protein assay
[7] = target: T3, Nociceptin/mu opioid receptor (Rattus norvegicus) (UniProt P33535+P35370); experiment: Activity at Wistar rat NOP/mu opioid receptor assessed as inhibition of low-frequency electrically-stimulated vas deferens contraction at 1 x 10^-5 M relative to control; type: protein assay
T3 sequence (P33535 whole entry, looked up): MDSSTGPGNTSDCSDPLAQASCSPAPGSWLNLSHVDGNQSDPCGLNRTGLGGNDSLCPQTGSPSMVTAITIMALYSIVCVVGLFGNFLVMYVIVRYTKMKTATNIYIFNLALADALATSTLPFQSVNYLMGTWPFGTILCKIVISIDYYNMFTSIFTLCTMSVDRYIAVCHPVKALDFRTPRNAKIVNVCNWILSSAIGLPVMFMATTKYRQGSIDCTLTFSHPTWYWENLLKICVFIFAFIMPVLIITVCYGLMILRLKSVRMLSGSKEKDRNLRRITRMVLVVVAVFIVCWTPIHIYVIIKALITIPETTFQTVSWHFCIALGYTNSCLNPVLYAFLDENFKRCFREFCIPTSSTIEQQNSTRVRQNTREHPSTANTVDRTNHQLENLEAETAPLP
T3 sequence (P35370 whole entry, looked up): as the sequence (P35370 whole entry) above

[8] = target: T2, Nociceptin/mu opioid receptor; experiment: Activity at Wistar rat NOP/mu opioid receptor assessed as inhibition of low-frequency electrically-stimulated vas deferens contraction; type: protein assay
[9] = target: Mu-type opioid receptor (Rattus norvegicus) (UniProt P33535); experiment: Activity at Wistar rat mu opioid receptor assessed as inhibition of low-frequency electrically-stimulated vas deferens contraction up to 1 x 10^-5 M in presence of naloxone benzoylhydrazone
Sequence of Mu-type opioid receptor (Rattus norvegicus) (P33535 whole entry): as the sequence (P33535 whole entry, looked up) above

[10] = target: T3, Nociceptin/mu opioid receptor (Rattus norvegicus); experiment: Activity at Wistar rat NOP/mu opioid receptor assessed as inhibition of low-frequency electrically-stimulated vas deferens contraction at 1 x 10^-5 M in presence of naloxone relative to control; type: protein assay
[11] = target: Mu-type opioid receptor (Rattus norvegicus) (UniProt P33535); experiment: Activity at Wistar rat mu opioid receptor assessed as inhibition of low-frequency electrically-stimulated vas deferens contraction at 1 x 10^-6 to 1 x 10^-5 M
[12] = target: T3, Nociceptin/mu opioid receptor (Rattus norvegicus); experiment: Activity at Wistar rat NOP/mu opioid receptor assessed as inhibition of low-frequency electrically-stimulated vas deferens contraction at 1 x 10^-5 M in presence of naloxone; type: protein assay
[13] = target: T3, Nociceptin/mu opioid receptor (Rattus norvegicus); experiment: Activity at Wistar rat NOP/mu opioid receptor assessed as inhibition of low-frequency electrically-stimulated vas deferens contraction at 1 x 10^-5 M in presence of naloxone benzoylhydrazone; type: protein assay
[14] = target: Nociceptin receptor (Rattus norvegicus) (UniProt P35370); experiment: Activity at Wistar rat NOP receptor assessed as inhibition of low-frequency electrically-stimulated vas deferens contraction at 1 x 10^-11 to 1 x 10^-5 M in presence of naloxone
[15] = target: Mu-type opioid receptor (Rattus norvegicus) (UniProt P33535); experiment: Activity at Wistar rat mu opioid receptor assessed as inhibition of low-frequency electrically-stimulated vas deferens contraction at 1 x 10^-11 to […] in presence of naloxone
[16] = target: Mu-type opioid receptor (Rattus norvegicus) (UniProt P33535); experiment: Activity at Wistar rat mu opioid receptor assessed as inhibition of low-frequency electrically-stimulated vas deferens contraction at 1 x 10^-5 M relative to control
[17] = target: Mu-type opioid receptor (Rattus norvegicus) (UniProt P33535); experiment: Activity at Wistar rat mu opioid receptor assessed as inhibition of low-frequency electrically-stimulated vas deferens contraction at 1 x 10^-6 to 1 x 10^-5 M in presence of naloxone benzoylhydrazone
[18] = target: T4, Mu-type opioid receptor (Rattus norvegicus, UniProt P33535); experiment: Activity at Wistar rat mu opioid receptor assessed as inhibition of low-frequency electrically-stimulated vas deferens contraction in presence of naloxone
T4 sequence (P33535 whole entry): as the sequence (P33535 whole entry, looked up) above

[19] = target: T4, Mu-type opioid receptor; experiment: Activity at Wistar rat mu opioid receptor assessed as inhibition of low-frequency electrically-stimulated vas deferens contraction
[20] = target: Mu-type opioid receptor (Rattus norvegicus) (UniProt P33535); experiment: Activity at Wistar rat mu opioid receptor assessed as inhibition of low-frequency electrically-stimulated vas deferens contraction at 1 x 10^-5 M in presence of naloxone relative to control

In the case of Ac-RYYRWK-NH2, the Emax [1] is reported as -31%, the Emax [2] is reported as -36% and the inhibition [3] is reported as “inactive”. For the same compound, the EC50 [4] was 0.00617 µM and the EC50 [5] was 0.0158 µM.

Work on COc1ccc2[nH]cc([C@H](CNC(=O)[C@H](CCSC)NC(=O)[C@H](Cc3ccccc3)NC(=O)[C@H](CCCNC(=N)N)NC(C)=O)C(=O)N[C@@H](CCSC)C(=O)N[C@@H](CCCCN)C(N)=O)c2c1 (Ac-RFM[X2]MK-NH2) yielded a pEC50 [6] of 6.26, an Emax [7] of -34% and a pEC50 [8] of 5.78. For the same compound, the inhibition [9] was “inactive”, the Emax [10] was -14% and the inhibition [11] was “Active”.

For CC(=O)N[C@@H](CCCNC(=N)N)C(=O)N[C@@H](Cc1ccc(O)cc1)C(=O)N[C@@H](Cc1ccc(O)cc1)C(=O)N[C@@H](CCCNC(=N)N)C(=O)NC[C@H](C(=O)N[C@@H](CCCCN)C(N)=O)c1cn(C)c2ccccc12 (Ac-RYYR[X1]K-NH2), the pEC50 [6] was 6.21, the Emax [7] was -36% and the inhibition [12] was “Active”. The pEC50 [8] was 6.5, the inhibition [13] was “inactive” and the Emax [10] was -17%.

COc1ccc2[nH]cc([C@H](CNC(=O)[C@H](CCCNC(=N)N)NC(=O)[C@H](Cc3ccc(O)cc3)NC(=O)[C@H](Cc3ccc(O)cc3)NC(=O)[C@H](CCCNC(=N)N)NC(C)=O)C(=O)N[C@@H](CCCCN)C(N)=O)c2c1 (Ac-RYYR[X2]K-NH2) was tested, and the inhibition [14] was “inactive”, the Emax [1] was -12% and the Emax [2] was -52%. It also gave an EC50 [4] of 1.66 µM and an EC50 [5] of 1.41 µM.

C[C@H](NC(=O)CNC(=O)[C@@H](NC(=O)[C@H](Cc1ccccc1)NC(=O)CNC(=O)CNC(=O)[C@@H](N)Cc1ccccc1)[C@@H](C)O)C(=O)N[C@@H](CCCNC(=N)N)C(=O)N[C@@H](CCCCN)C(=O)N[C@@H](CO)C(=O)N[C@@H](C)C(=O)N[C@@H](CCCNC(=N)N)C(=O)N[C@@H](CCCCN)C(N)=O was tested, and the Emax [2] was -73%.

For CSCC[C@H](NC(=O)[C@H](Cc1ccccc1)NC(=O)[C@H](CCCNC(=N)N)NC(C)=O)C(=O)NC[C@H](C(=O)N[C@@H](CCSC)C(=O)N[C@@H](CCCCN)C(N)=O)c1cn(C)c2ccccc12 (Ac-RFM[X1]MK-NH2), the inhibition [15] was “inactive”, the Emax [16] was -50% and the inhibition [17] was “inactive”. The EC50 [18] was 1.62 µM, the EC50 [19] was 1.23 µM and the Emax [20] was -15%.

With Ac-RFMWMK-NH2 the inhibition [15] was “inactive”, the Emax [16] was -52% and the inhibition [17] was “inactive”. For the same compound, the EC50 [18] was 1.15 µM, the EC50 [19] was 1.02 µM and the Emax [20] was -14%.

From ChEMBL document CHEMBL2401678, “Synthesis and changes in affinity for NOP and opioid receptors of novel hexapeptides containing β(2)-tryptophan analogues” (Bioorg Med Chem Lett, 2013)
